# Structures can show the parent of a compound that is named as a salt.
# Test system: Acinetobacter baumannii ATCC17978
# Assay: Antimicrobial susceptibility testing: 90% growth inhibitory concentration (IC90) determination, Iso-Sensitest broth
# Format: cell-based
# Settings: 90% growth inhibitory concentration, Acinetobacter baumannii ATCC17978, Iso-Sensitest broth, OD 600 nm over 16 h; read-out: ATCC17978 IC90
# Summary of the method: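 A. baumannii ATCC17978 grown in Iso-Sensitest broth across 10 compound concentrations at 35±2 °C.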
row,SMILES,IC90
1,"Cc1cc(Nc2nccn3c(-c4ccc(Oc5ccccn5)c(F)c4F)cnc23)ccc1C(=O)N1CCC(CN)CC1 [Example 122, [4-(aminomethyl)-1-piperidyl]-[4-[[3-[2,3-difluoro-4-(2-pyridyloxy)phenyl]imidazo[1,2-a]pyrazin-8-yl]amino]-2-methyl-phenyl]methanone formate]",320 nM
2,"Cc1cc(Nc2nccn3c(-c4ccc(Oc5ccncc5)c(F)c4F)cnc23)ccc1C(=O)N1CCC(CN)CC1 [Example 123, [4-(aminomethyl)-1-piperidyl]-[4-[[3-[2,3-difluoro-4-(4-pyridyloxy)phenyl]imidazo[1,2-a]pyrazin-8-yl]amino]-2-methyl-phenyl]methanone]",760 nM
3,"Cc1cc(Nc2nccn3c(-c4ccc(OCc5cccnc5)c(F)c4F)cnc23)ccc1C(=O)N1CCC(CN)CC1 [Example 124, [4-(aminomethyl)-1-piperidyl]-[4-[[3-[2,3-difluoro-4-(3-pyridylmethoxy)phenyl]imidazo[1,2-a]pyrazin-8-yl]amino]-2-methyl-phenyl]methanone formate]",900 nM
4,"Cc1cc(Nc2nccn3c(-c4ccc(OCc5ccccn5)c(F)c4F)cnc23)ccc1C(=O)N1CCC(CN)CC1 [Example 125, [4-(aminomethyl)-1-piperidyl]-[4-[[3-[2,3-difluoro-4-(2-pyridylmethoxy)phenyl]imidazo[1,2-a]pyrazin-8-yl]amino]-2-methyl-phenyl]methanone; formic acid]",1700 nM
5,"Cc1cc(Nc2nccn3c(-c4ccc(OCc5ccccc5)c(F)c4F)cnc23)ccc1C(=O)N1CCC(CN)CC1 [Example 126, [4-(aminomethyl)-1-piperidyl]-[4-[[3-(4-benzyloxy-2,3-difluoro-phenyl)imidazo[1,2-a]pyrazin-8-yl]amino]-2-methyl-phenyl]methanone formate]",3600 nM
6,"Cc1cc(Nc2nccn3c(-c4ccc(OCc5ccncc5)c(F)c4F)cnc23)ccc1C(=O)N1CCC(CN)CC1 [Example 127, [4-(aminomethyl)-1-piperidyl]-[4-[[3-[2,3-difluoro-4-(4-pyridylmethoxy)phenyl]imidazo[1,2-a]pyrazin-8-yl]amino]-2-methyl-phenyl]methanone formate]",910 nM
7,"Cc1cc(Nc2nccn3c(-c4ccc(OC(F)F)cc4)cnc23)ccc1C(=O)N1CCNCC1 [Example 129, [4-[[3-[4-(difluoromethoxy)phenyl]imidazo[1,2-a]pyrazin-8-yl]amino]-2-methyl-phenyl]-piperazin-1-yl-methanone hydrochloride]",910 nM
8,"COc1ccc(-c2cnc3c(Nc4ccc(C(=O)N5CCNCC5)c(C)c4)nccn23)cc1F [Example 130, [4-[[3-(3-fluoro-4-methoxy-phenyl)imidazo[1,2-a]pyrazin-8-yl]amino]-2-methyl-phenyl]-piperazin-1-yl-methanone hydrochloride]",430 nM
9,"Cc1cc(Nc2nccn3c(-c4ccc(OC(F)F)cc4)cnc23)ccc1C(=O)N1CCN(C(=O)N2CCOC(CN(C)C)C2)CC1 (stereo not shown) [Example 132, [4-[[3-[4-(difluoromethoxy)phenyl]imidazo[1,2-a]pyrazin-8-yl]amino]-2-methyl-phenyl]-[4-[2-[(dimethylamino)methyl]morpholine-4-carbonyl]piperazin-1-yl]methanone]",300 nM
10,"Cc1cc(Nc2nccn3c(-c4ccc(OC(F)F)cc4)cnc23)ccc1C(=O)N1CCN(C(=O)N2CCNC(CO)C2)CC1 (stereo not shown) [Example 133, [4-[[3-[4-(difluoromethoxy)phenyl]imidazo[1,2-a]pyrazin-8-yl]amino]-2-methyl-phenyl]-[4-[3-(hydroxymethyl)piperazine-1-carbonyl]piperazin-1-yl]methanone hydrochloride]",230 nM
11,"Cc1cc(Nc2nccn3c(-c4ccc(OC(F)F)cc4)cnc23)ccc1C(=O)N1CCN(C(=O)N2CCOC(CN)C2)CC1 (stereo not shown) [Example 134, [4-[2-(aminomethyl)morpholine-4-carbonyl]piperazin-1-yl]-[4-[[3-[4-(difluoromethoxy)phenyl]imidazo[1,2-a]pyrazin-8-yl]amino]-2-methyl-phenyl]methanone hydrochloride]",260 nM
12,"Cc1cc(Nc2nccn3c(-c4ccc(OC(F)F)cc4)cnc23)ccc1C(=O)N1CCN(C(=O)N(C)C)CC1 [Example 135, 4-[4-[[3-[4-(difluoromethoxy)phenyl]imidazo[1,2-a]pyrazin-8-yl]amino]-2-methyl-benzoyl]-N,N-dimethyl-piperazine-1-carboxamide]",280 nM
13,"CNCC1CN(C(=O)N2CCN(C(=O)c3ccc(Nc4nccn5c(-c6ccc(OC(F)F)cc6)cnc45)cc3C)CC2)CCO1 (stereo not shown) [Example 136, [4-[[3-[4-(difluoromethoxy)phenyl]imidazo[1,2-a]pyrazin-8-yl]amino]-2-methyl-phenyl]-[4-[2-(methylaminomethyl)morpholine-4-carbonyl]piperazin-1-yl]methanone hydrochloride]",270 nM
14,"Cc1cc(Nc2nccn3c(-c4ccc(OCC#N)c(F)c4F)cnc23)ccc1C(=O)N1CCN(C(=O)N2CCNCC2)CC1 [Example 137, 2-[2,3-difluoro-4-[8-[3-methyl-4-[4-(piperazine-1-carbonyl)piperazine-1-carbonyl]anilino]imidazo[1,2-a]pyrazin-3-yl]phenoxy]acetonitrile formate]",130 nM
15,"Cc1cc(Nc2nccn3c(-c4ccc(OC(F)F)cc4)cnc23)ccc1C(=O)N1CCN(C(=O)N[C@H]2CCNC2)CC1 [Example 138, 4-[4-[[3-[4-(difluoromethoxy)phenyl]imidazo[1,2-a]pyrazin-8-yl]amino]-2-methyl-benzoyl]-N-[(3S)-pyrrolidin-3-yl]piperazine-1-carboxamide hydrochloride]",110 nM
16,"Cc1cc(Nc2nccn3c(-c4ccc(OCC#N)c(F)c4F)cnc23)ccc1C(=O)N1CCN(C(=O)NCCN)CC1 [Example 139, N-(2-aminoethyl)-4-[4-[[3-[4-(cyanomethoxy)-2,3-difluoro-phenyl]imidazo[1,2-a]pyrazin-8-yl]amino]-2-methyl-benzoyl]piperazine-1-carboxamide formate]",130 nM
17,"COc1ccc(-c2cnc3c(Nc4ccc(C(=O)N5CCN(C(=O)N6CCO[C@H](CN)C6)CC5)c(C)c4)nccn23)c(F)c1F [Example 140, [4-[(2R)-2-(aminomethyl)morpholine-4-carbonyl]piperazin-1-yl]-[4-[[3-(2,3-difluoro-4-methoxy-phenyl)imidazo[1,2-a]pyrazin-8-yl]amino]-2-methyl-phenyl]methanone formate]",190 nM
18,"Cc1cc(Nc2nccn3c(-c4ccc(OC(F)F)cc4)cnc23)ccc1C(=O)N1CCN(C(=O)N[C@@H]2CCNC2)CC1 [Example 142, 4-[4-[[3-[4-(difluoromethoxy)phenyl]imidazo[1,2-a]pyrazin-8-yl]amino]-2-methyl-benzoyl]-N-[(3R)-pyrrolidin-3-yl]piperazine-1-carboxamide hydrochloride]",150 nM

# Same assay, conditions: Acinetobacter baumannii, ATCC17978, 16 h, read-out: ATCC17978 IC90, 90% growth inhibitory concentration, Acinetobacter baumannii ATCC17978, Iso-Sensitest broth, OD 600 nm over 16 h
row,SMILES,IC90
1,"Cc1cc(Nc2nccn3c(-c4ccc(OC(F)F)cc4)cnc23)ccc1C(=O)N1CCN(C(=O)N2CCN(C)CC2)CC1 [Example 128, [4-[[3-[4-(difluoromethoxy)phenyl]imidazo[1,2-a]pyrazin-8-yl]amino]-2-methyl-phenyl]-[4-(4-methylpiperazine-1-carbonyl)piperazin-1-yl]methanone formate]",190 nM
